Results taken from patent publication US20260258330A1, “USE OF AT LEAST ONE […] A BEVERAGE, IN […] ALCOHOLIC BEVERAGE, AS A […] […]” (priority 2023, published 2026).
Like-named read-outs stand apart in the source and are kept apart here.

How the values were obtained:
Saccharomyces cerevisiae [1] = type: cell-based
Protocol: For this example, 10 mL of apple juice, grape juice or multifruit juice was inoculated with a strain of Saccharomyces cerevisiae at 60,000 cells per mL, that is a deposit of 17 μL of inoculum per 10 ml tube for Ci at T0=[…].
These inoculated juices were incubated statically at 20° C., under subdued light, after having been pre-treated as follows: • 1. Untreated (Negative control) • 2. […] Ethanol 2.37% • 4. Ethanol 4.74% • 5. 100 ppm Chitosan • 6. 9 ppm Amphidinol 18 (AM18) • 7. 18 ppm Amphidinol 18 (AM18) • 8. 36 ppm Amphidinol 18 (AM18)
The amphidinol concentration is obtained using the product according to the invention obtained from Example 1. The amount of product according to the invention is adjusted to obtain the desired amphidinol concentrations.
The biomass of Saccharomyces populations was measured by optical density reading at 600 nm.

[2] = Degradability of amphidinol 18 in light at room temperature, HPLC (Example 4); type: physicochemical; conditions: product at one gram per liter in 70% ethanol
Description: Regularly, the concentration of amphidinol 18 in the product according to the invention has been measured by high-performance liquid chromatography.

[3] = tested on: three strains of Brettanomyces bruxellensis; test: Growth of three Brettanomyces bruxellensis strains with product or inactivated product, optical density at 550 nm (Example 4); type: cell-based; conditions: conclusion from degradation and growth tests of Example 4
Protocol: Two replicas were made for each condition.
Yeast growth is measured by reading the optical density at 550 nanometers.

[4] = tested on: Brettanomyces bruxellensis NL6300; test: Minimum inhibitory concentration of peak 0 purified fraction, OD550 (Example 6); type: cell-based; conditions: all concentrations (40 to 5 ppm) except the 5 ppm concentration of AM18
Protocol: The minimum inhibitory concentration of peak 0 (purified fraction) was determined for two strains of Brettanomyces bruxellensis (NL6293 and NL6300) according to the protocol described in Example 2 and FIG. 1B.
OD550 nm at T=0 days, T=3 days and T=6 days was measured after incubation of yeasts at 28° C. in the presence of YPD medium alone (negative control), methanol or in the presence of peak 0 at dilutions ranging from 1:32 to 1:256 corresponding to concentrations of 40 to 5 ppm of amphidinol 18. The product according to the invention at 0.25 g/L was also tested (positive control). Two replicas were produced.

Saccharomyces cerevisiae [5] = test: Minimum inhibitory concentration of peak 0 purified fraction, OD550 (Example 7); type: cell-based; conditions: 40 and 20 ppm of AM18 (tested 40 to 5 ppm); 2.5·10^4 CFU/mL
Protocol: The minimum inhibitory concentration (MIC) of peak 0 described in FIG. 5D was determined for Saccharomyces cerevisiae according to the protocol described in Example 2 and FIG. 1B.
OD550 nm at 0, 3 and 6 days (T0, T3 and T6) was measured after incubation at 28° C. of yeasts at 2.5·10^4 CFU/mL in the presence of YPD medium alone (negative control), methanol (MEtOH) or in the presence of peak 0 at a dilution of 1:32 to 1:256 corresponding to concentrations of 40 to 5 ppm of amphidinol 18. The product according to the invention at 0.25 g/L was also tested under the same conditions. Two replicas (rep1 and rep2) were produced.

Acetobacter aceti = test: Minimum inhibitory concentration of peak 0 purified fraction, OD550 (Example 8); type: cell-based; conditions: 40, 20 and 10 pp: of AM18 (tested 40 to 5 ppm); MRS medium, 10^5 CFU/mL
Protocol: The minimum inhibitory concentration (MIC) of peak 0 described in FIG. 5D was determined for Acetobacter aceti according to the protocol described in Example 2 and FIG. 1B.
OD550 nm at 0, 3 and 6 days (T0, T3 and T6) was measured after incubation at 28° C. of yeasts at 10^5 CFU/mL in the presence of MRS medium alone (negative control), methanol (MEtOH) or in the presence of peak 0 at a dilution of 1:32 to 1:256 corresponding to concentrations of 40 to 5 ppm of amphidinol 18. The product according to the invention at 0.25 g/L was also tested under the same conditions. Two replicas (rep1 and rep2) were carried out.

[6] = Degradation kinetics of amphidinol 18 in wine, HPLC (Example 10); type: physicochemical; conditions: product doses containing 60 ppm to 480 ppm amphidinol 18; up to day 44
Protocol: Different doses of the product according to the invention, containing from 60 ppm to 480 ppm of amphidinol 18, were inoculated in the wine. The amount of amphidinol 18 was determined by HPLC assay over time, up to day 44 (T44). The percentage of amphidinol 18 with respect to the initial dose was assessed over time.

## CCO [Ethanol, reference compound]
Saccharomyces cerevisiae [1]
  yeast population growth: no yeast population growth

## C=C/C=C/CC/C=C/C=C/C=C/CC/C=C/[C@H](O)[C@H](O)[C@@H]1O[C@@H]([C@H](O)[C@H](O)C(=C)CC[C@@H](O)[C@H]2C[C@@H](O)[C@@H](O)[C@H]([C@@H](O)[C@H](O)/C=C(\C)CCC(O)CC(O)C(O)C(C)CC(O)C(O)CC(C)CCC(O)CC(=O)CC(O)CCCC(O)CCCCC(O)CO)O2)C[C@@H](O)[C@H]1O (stereo partly drawn) [amphidinol 18]
[2]; T=0 days
  amphidinol 18 concentration of the product: 24 mg/L
[2]; T=120 days
  amphidinol 18 concentration of the product: ~0 mg/L
[3]
  effectiveness for controlling and/or limiting the growth of Brettanomyces bruxellensis: particularly effective
[4]
  effectiveness against strain NL6300: effective
Saccharomyces cerevisiae [5]
  effectiveness against Saccharomyces cerevisiae: effective
Acetobacter aceti
  effectiveness against Acetobacter aceti: effective
[6]
  degradation of amphidinol 18 in wine: degrades steadily
Saccharomyces cerevisiae [1]; 3 types of fruit juice
  growth of Saccharomyces populations: completely preventing the growth
Saccharomyces cerevisiae [1]; Apple juice, 9 ppm AM18
  Average D0, optical density at 600 nm: −0.1305
  Average D1, optical density at 600 nm: −0.1655
  Average D2, optical density at 600 nm: 0.1385
  Average D3, optical density at 600 nm: 0.6495
Saccharomyces cerevisiae [1]; Apple juice, 18 ppm AM18
  Average D0, optical density at 600 nm: 0.0835
  Average D1, optical density at 600 nm: 0.0055
  Average D2, optical density at 600 nm: −0.0505
  Average D3, optical density at 600 nm: −0.091
Saccharomyces cerevisiae [1]; Apple juice, 36 ppm AM18
  Average D0, optical density at 600 nm: −0.012
  Average D1, optical density at 600 nm: −0.007
  Average D2, optical density at 600 nm: −0.062
  Average D3, optical density at 600 nm: 0.3515
Saccharomyces cerevisiae [1]; Grape juice, 9 ppm AM18
  Average D0, optical density at 600 nm: 0.0755
  Average D1, optical density at 600 nm: 0.0375
  Average D2, optical density at 600 nm: 0.0315
  Average D3, optical density at 600 nm: −0.084
Saccharomyces cerevisiae [1]; Grape juice, 18 ppm AM18
  Average D0, optical density at 600 nm: 0.2065
  Average D1, optical density at 600 nm: 0.175
  Average D2, optical density at 600 nm: 0.154
  Average D3, optical density at 600 nm: 0.0515
Saccharomyces cerevisiae [1]; Grape juice, 36 ppm AM18
  Average D0, optical density at 600 nm: −0.1485
  Average D1, optical density at 600 nm: −0.174
  Average D2, optical density at 600 nm: −0.2285
  Average D3, optical density at 600 nm: −0.2465
Saccharomyces cerevisiae [1]; Multifruit juice, 9 ppm AM18
  Average D0, optical density at 600 nm: −0.006
  Average D1, optical density at 600 nm: −0.028
  Average D2, optical density at 600 nm: −0.0705
  Average D3, optical density at 600 nm: 0.0995
Saccharomyces cerevisiae [1]; Multifruit juice, 18 ppm AM18
  Average D0, optical density at 600 nm: 0.002
  Average D1, optical density at 600 nm: −0.0365
  Average D2, optical density at 600 nm: −0.0155
  Average D3, optical density at 600 nm: 0.033
Saccharomyces cerevisiae [1]; Multifruit juice, 36 ppm AM18
  Average D0, optical density at 600 nm: −0.009
  Average D1, optical density at 600 nm: 0.034
  Average D2, optical density at 600 nm: 0.008
  Average D3, optical density at 600 nm: 0.018
